From patent publication US20090018189A1, “Hormone Sensitive Lipase Modulators And Methods Of Use” (DEVIRIS, priority 2007, published 2009)

Biological target: T1, recombinant HSL (Homo sapiens, UniProt Q05469)
T1 sequence (Q05469 1-1076): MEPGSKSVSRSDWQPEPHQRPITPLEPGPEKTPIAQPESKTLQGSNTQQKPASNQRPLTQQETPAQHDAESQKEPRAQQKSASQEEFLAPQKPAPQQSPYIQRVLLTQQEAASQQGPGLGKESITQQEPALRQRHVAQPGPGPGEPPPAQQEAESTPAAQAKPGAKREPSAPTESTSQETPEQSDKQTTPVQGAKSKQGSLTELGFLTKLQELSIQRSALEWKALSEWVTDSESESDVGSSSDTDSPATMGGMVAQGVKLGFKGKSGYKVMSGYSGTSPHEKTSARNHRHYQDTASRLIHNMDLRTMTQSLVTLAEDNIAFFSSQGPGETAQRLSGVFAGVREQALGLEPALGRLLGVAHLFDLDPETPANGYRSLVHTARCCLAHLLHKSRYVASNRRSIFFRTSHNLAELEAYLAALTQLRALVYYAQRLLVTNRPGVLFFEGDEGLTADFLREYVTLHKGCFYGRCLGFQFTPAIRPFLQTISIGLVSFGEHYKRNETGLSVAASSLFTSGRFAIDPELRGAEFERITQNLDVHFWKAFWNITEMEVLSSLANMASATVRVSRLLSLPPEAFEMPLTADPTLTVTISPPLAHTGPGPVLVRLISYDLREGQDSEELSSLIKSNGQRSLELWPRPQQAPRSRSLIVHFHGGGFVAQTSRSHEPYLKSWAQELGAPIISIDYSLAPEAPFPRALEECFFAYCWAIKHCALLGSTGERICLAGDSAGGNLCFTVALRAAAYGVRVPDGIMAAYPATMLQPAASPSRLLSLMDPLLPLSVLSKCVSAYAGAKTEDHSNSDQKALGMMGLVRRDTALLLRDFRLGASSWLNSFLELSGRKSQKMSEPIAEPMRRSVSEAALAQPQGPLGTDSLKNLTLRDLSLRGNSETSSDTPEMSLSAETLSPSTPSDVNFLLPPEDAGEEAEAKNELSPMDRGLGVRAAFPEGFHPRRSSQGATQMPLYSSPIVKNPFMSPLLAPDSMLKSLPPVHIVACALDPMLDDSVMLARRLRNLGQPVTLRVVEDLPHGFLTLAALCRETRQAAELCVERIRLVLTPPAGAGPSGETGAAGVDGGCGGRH
Experiment: Inhibition of recombinant HSL activity
Type: biochemical
Description: Compounds 1-7 were dissolved in 20% DMSO as 10 mg/mL stock, and used in assays with recombinant HSL to test for the potency for inhibiting HSL activity, the protocol for which is described in International Patent Application No. PCT/US07/00284, which is incorporated by reference in its entirety herein. Each compound's inhibitory effect on HSL is shown in FIG. 1 and 2, with Compound 1 having an IC50 of about 0.1 to about 0.2 mg/mL and Compound 5 showing about 40% inhibition at 0.4 mg/mL.

SMILES | IC50 (compound stock 10 mg/mL in 20% DMSO, read-out: IC50 for inhibiting HSL activity) | inhibition at 400 µg/mL (at 0.4 mg/mL)
CCN(CC)C(CC(=O)OCCc1ccc(O)cc1)CC(=O)OCc1ccccc1 (centres unmarked) [Compound 1] | 242 to 484 µM | –
COC(=O)C(=O)NC(CC(=O)NCCc1ccc(O)cc1)CC(=O)OCc1ccccc1 (centres unmarked) [Compound 5] | – | ~40%
